Data reported in US8455461B2, “Compositions containing a synergic mixture of polyols and xyloglucanes as phytosanitary and bio-fertilising products” (Elicityl, priority 2007, dated 2013).

Tests used:
[1] = system: Cabernet-Sauvignon vine plants; experiment: Frost-resistance of young vine plants, Cabernet-Sauvignon (foliar spraying, cold stress, foliar necroses); type: in vivo
Experimental: (§1) Plants originating from different vine varieties: the Chardonnay and Cabernet-Sauvignon varieties are used. Each sample, composed of 5 to 21 plants, is treated by foliar spraying at different vegetative stages on the BBCH scale with a mixture containing the xyloglucan elicitor, heptasaccharide XFGol or heptamaloxyloglucan, in solution at variable doses combined or not combined with sorbitol; the spraying of 2.5 ml of solution per plant is carried out using a sprayer (deviation of +/−1%). After use of the elicitor, the plants were exposed to cold stress of variable intensity and duration. After exposure to the cold, the plants are placed in a climatic chamber at 20° C. with a 12-hour day/night alternation. The appearance of the leaves is observed 24 hours and 72 hours after removal from the cold. The effects of the cold are evaluated by observing the foliar necroses induced by frost and the plants are kept for several months in order to monitor their subsequent development. The results are expressed by the protection index c (%)=100−P; P, being the proportion of foliar necroses. The results are also expressed in gain: [formula]

Chardonnay vine plants = experiment: Frost-resistance of young vine plants, Chardonnay (foliar spraying, cold stress, foliar necroses); type: in vivo
Experimental: as §1

## OC[C@@H](O)[C@@H](O)[C@H](O)[C@@H](O)CO [sorbitol]
[1]; Cabernet-Sauvignon, 0.1% sorbitol, when the elicitor itself has no effect
  effect of sorbitol on frost protection: without effect
Chardonnay vine plants; 0.1% sorbitol, when the elicitor itself has no effect
  effect of sorbitol on frost protection: without effect

## CC1OC(OC2C(OC3C(OCC4OC(OC(C(O)CO)C(O)C(O)CO)C(O)C(O)C4OC4OC(COC5OCC(O)C(O)C5O)C(O)C(O)C4O)OCC(O)C3O)OC(CO)C(O)C2O)C(O)C(O)C1O (stereo not drawn) [Elicitor, heptamaloxyloglucan]
[1]; Cabernet-Sauvignon second series, 500 nM elicitor, vs dry control
  Gain %: 200%
[1]; Cabernet-Sauvignon second series, all physiological stages combined, 500 nM elicitor
  If % average (protection index): 60%
Chardonnay vine plants; all physiological stages combined, 5 nM elicitor
  If % average (protection index): 40%
Chardonnay vine plants; all physiological stages combined, 5 nM elicitor, vs dry control
  Gain %: 0%
